Tested on: Subjects With Active Crohn's Disease
Assay: LDL determination, Study 5 (Crohn's disease)
Format: in vivo, human
Details: for [LDL] Median CFB - 10 weeks results: 200 mg q.d. (N = 130)
Description: Double-Blind, Randomized, Placebo-Controlled, Multi-Centre Study to Investigate the Efficacy and Safety of Compound 1 in Subjects With Active Crohn's Disease With Evidence of Mucosal Ulceration.
This is a double-blind, randomized, placebo-controlled, multi-centre Phase 2 study to investigate the efficacy and safety of Compound 1 administered once daily for the treatment of active CD with evidence of mucosal ulceration. The pharmacokinetics (including a PK substudy) and pharmacodynamics of Compound 1 and metabolite in CD will also be characterised.
A total of 180 eligible subjects will be randomized to receive Compound 1 or placebo in addition to their stable background treatment (eg, corticosteroids, aminosalicylates, or CD-related antibiotics). The study will consist of 2 parts, with total treatment duration of 20 weeks. Randomization in Part 1 will be stratified according the subject's previous anti-TNF exposure/response, CRP level at Screening, and oral corticosteroid use at visit Day −1.
After the first 10 weeks of treatment in Part 1, patients will be re-randomized for Part 2 as shown in the diagram below and will be stratified according to the subject's clinical response, previous anti-TNF exposure/response, and oral corticosteroid use at visit Day −1.
The following assays were conducted at Eurofins Global Central Laboratory, Bergschot 71, 4817 PA Breda, The Netherlands, and at Quest Diagnostics, Clinical Trials, Quest House, 125-135 Staines Road, Hounslow, Middlesex, TW3 3JB, United Kingdom. The assays for Study 5 were performed at BARC Europe, 3B, Industrie Park, Zwijnaarde, B-9052 Ghent, Belgium.
The determination of [LDL]-cholesterol is made using an automated method taking advantage of the selective micellary solubilization of [LDL]-cholesterol by a nonionic detergent and the interaction of a sugar compound and lipoproteins (VLDL and chylomicrons).
When a detergent is included in the enzymatic method for cholesterol determination (cholesterol esterase, cholesterol oxidase coupling reaction), the relative reactivities of cholesterol in the lipoprotein fractions increase in this order: [HDL]<chylomicrons <VLDL <[LDL]. In the presence of Mg^2+, a sugar compound markedly reduces the enzymatic reaction of the cholesterol measurement in VLDL and chylomicrons. The combination of a sugar compound with detergent enables the selective determination of [LDL]-cholesterol in serum. (Friedewald et al., 1972; Rifai et al., 1992)
Homogeneous enzymatic colorimetric assay.
In the presence of peroxidase, the hydrogen peroxide generated reacts with 4-aminoantipyrine and Sodium N-(2-hydroxy-3-sulfopropyl)-3,5-dimethoxyaniline (HSDA) to form a purple-blue dye.
The color intensity of this dye is directly proportional to the cholesterol concentration and is measured photometrically.
Human serum and plasma samples [LDL] determination was done on a Roche/Hitachi Cobas c 701/702 system which automatically calculate the analyte concentration of each sample. Samples containing precipitates are centrifuged before performing the assay.

[1] = 200 mg q.d. continued to week 20, week 2
[2] = 200 mg q.d. continued to week 20, week 4
[3] = 200 mg q.d. continued to week 20, week 6
[4] = 200 mg q.d. continued to week 20, week 10
[5] = 200 mg q.d. continued to week 20, week 12
[6] = 200 mg q.d. continued to week 20, week 16
[7] = 200 mg q.d. continued to week 20, week 20
[8] = 200 mg q.d. week 0 to 10, then 100 mg q.d. (N = 30), week 2
[9] = 200 mg q.d. week 0 to 10, then 100 mg q.d. (N = 30), week 4
[10] = 200 mg q.d. week 0 to 10, then 100 mg q.d. (N = 30), week 6
[11] = 200 mg q.d. week 0 to 10, then 100 mg q.d. (N = 30), week 10
[12] = 200 mg q.d. week 0 to 10, then 100 mg q.d. (N = 30), week 12
[13] = 200 mg q.d. week 0 to 10, then 100 mg q.d. (N = 30), week 16
[14] = 200 mg q.d. week 0 to 10, then 100 mg q.d. (N = 30), week 20
[15] = 200 mg q.d. week 0 to 10, then placebo (N = 23), week 2
[16] = 200 mg q.d. week 0 to 10, then placebo (N = 23), week 4
[17] = 200 mg q.d. week 0 to 10, then placebo (N = 23), week 6
[18] = 200 mg q.d. week 0 to 10, then placebo (N = 23), week 10
[19] = 200 mg q.d. week 0 to 10, then placebo (N = 23), week 12
[20] = 200 mg q.d. week 0 to 10, then placebo (N = 23), week 16
[21] = 200 mg q.d. week 0 to 10, then placebo (N = 23), week 20
[22] = 200 mg q.d. week 0 to 10, to 100 mg q.d. week 10 to 20, week 2
[23] = 200 mg q.d. week 0 to 10, to 100 mg q.d. week 10 to 20, week 4
[24] = 200 mg q.d. week 0 to 10, to 100 mg q.d. week 10 to 20, week 6
[25] = 200 mg q.d. week 0 to 10, to 100 mg q.d. week 10 to 20, week 10
[26] = 200 mg q.d. week 0 to 10, to 100 mg q.d. week 10 to 20, week 12

## O=C(Nc1nc2cccc(-c3ccc(CN4CCS(=O)(=O)CC4)cc3)n2n1)C1CC1 [Compound 1, cyclopropanecarboxylic acid {5-[4-(1,1-dioxo-thiomorpholin-4-ylmethyl)-phenyl]-[1,2,4]triazolo[1,5-a]pyridin-2yl}-amide]
Week 2
  [LDL] Median CFB - 10 weeks results: -0.050 mmol/L
Week 4
  [LDL] Median CFB - 10 weeks results: -0.050 mmol/L
Week 6
  [LDL] Median CFB - 10 weeks results: 0.025 mmol/L
Week 10
  [LDL] Median CFB - 10 weeks results: 0.160 mmol/L
[1]
  [LDL] Mean CFB - 20 weeks results: 3.14%
  [LDL] Median CFB - 20 weeks results: −2.51%
[2]
  [LDL] Mean CFB - 20 weeks results: 1.21%
  [LDL] Median CFB - 20 weeks results: −2.16%
[3]
  [LDL] Mean CFB - 20 weeks results: 0.73%
  [LDL] Median CFB - 20 weeks results: −0.61%
[4]
  [LDL] Mean CFB - 20 weeks results: 14.77%
  [LDL] Median CFB - 20 weeks results: 8.26%
[5]
  [LDL] Mean CFB - 20 weeks results: 9.98%
  [LDL] Median CFB - 20 weeks results: 5.42%
[6]
  [LDL] Mean CFB - 20 weeks results: 12.35%
  [LDL] Median CFB - 20 weeks results: 7.42%
[7]
  [LDL] Mean CFB - 20 weeks results: 11.56%
  [LDL] Median CFB - 20 weeks results: 6.93%
[8]
  [LDL] Mean CFB - 20 weeks results: -0.02 mmol/L
  [LDL] Median CFB - 10 weeks results 20 weeks results: -0.05 mmol/L
[9]
  [LDL] Mean CFB - 20 weeks results: 0.00 mmol/L
  [LDL] Median CFB - 10 weeks results 20 weeks results: -0.10 mmol/L
[10]
  [LDL] Mean CFB - 20 weeks results: 0.00 mmol/L
  [LDL] Median CFB - 10 weeks results 20 weeks results: 0.04 mmol/L
[11]
  [LDL] Mean CFB - 20 weeks results: 0.10 mmol/L
  [LDL] Median CFB - 10 weeks results 20 weeks results: 0.17 mmol/L
[12]
  [LDL] Mean CFB - 20 weeks results: 0.10 mmol/L
  [LDL] Median CFB - 10 weeks results 20 weeks results: 0.19 mmol/L
[13]
  [LDL] Mean CFB - 20 weeks results: 0.01 mmol/L
  [LDL] Median CFB - 10 weeks results 20 weeks results: -0.05 mmol/L
[14]
  [LDL] Mean CFB - 20 weeks results: 0.01 mmol/L
  [LDL] Median CFB - 10 weeks results 20 weeks results: 0.04 mmol/L
[15]
  [LDL] Mean CFB - 20 weeks results: 0.037 mmol/L
  [LDL] Median CFB - 10 weeks results 20 weeks results: 0.02 mmol/L
[16]
  [LDL] Mean CFB - 20 weeks results: -0.017 mmol/L
  [LDL] Median CFB - 10 weeks results 20 weeks results: 0.05 mmol/L
[17]
  [LDL] Mean CFB - 20 weeks results: 0.085 mmol/L
  [LDL] Median CFB - 10 weeks results 20 weeks results: 0.09 mmol/L
[18]
  [LDL] Mean CFB - 20 weeks results: 0.077 mmol/L
  [LDL] Median CFB - 10 weeks results 20 weeks results: 0.03 mmol/L
[19]
  [LDL] Mean CFB - 20 weeks results: 0.105 mmol/L
  [LDL] Median CFB - 10 weeks results 20 weeks results: 0.12 mmol/L
[20]
  [LDL] Mean CFB - 20 weeks results: 0.222 mmol/L
  [LDL] Median CFB - 10 weeks results 20 weeks results: 0.08 mmol/L
[21]
  [LDL] Mean CFB - 20 weeks results: 0.205 mmol/L
  [LDL] Median CFB - 10 weeks results 20 weeks results: 0.11 mmol/L
[22]
  [LDL] Mean CFB - 20 weeks results: 2.17%
  [LDL] Median CFB - 20 weeks results: −1.37%
[23]
  [LDL] Mean CFB - 20 weeks results: 4.07%
  [LDL] Median CFB - 20 weeks results: −1.98%
[24]
  [LDL] Mean CFB - 20 weeks results: 2.59%
  [LDL] Median CFB - 20 weeks results: 1.25%
[25]
  [LDL] Mean CFB - 20 weeks results: 5.40%
  [LDL] Median CFB - 20 weeks results: 7.46%
[26]
  [LDL] Mean CFB - 20 weeks results: 5.91%
  [LDL] Median CFB - 20 weeks results: 6.39%

From patent US10376520B2, “Methods for the treatment of cardiovascular disorders” (Galapagos NV, priority 2015, dated 2019)
